# Measured values reported in EP4635944A1, “2-AZABICYCLO[3.1.1]HEPTANE COMPOUND” (Daiichi Sankyo Company, Limited, priority 2022, dated 2024).
# pEC50: −log10 of the molar value.
# Biological target: T1, human OX2R (Homo sapiens, UniProt O43614)
# T1 construct: host or cells: CHO-K1 (Chinese Hamster Ovary K1)
# T1 sequence (O43614 1-444): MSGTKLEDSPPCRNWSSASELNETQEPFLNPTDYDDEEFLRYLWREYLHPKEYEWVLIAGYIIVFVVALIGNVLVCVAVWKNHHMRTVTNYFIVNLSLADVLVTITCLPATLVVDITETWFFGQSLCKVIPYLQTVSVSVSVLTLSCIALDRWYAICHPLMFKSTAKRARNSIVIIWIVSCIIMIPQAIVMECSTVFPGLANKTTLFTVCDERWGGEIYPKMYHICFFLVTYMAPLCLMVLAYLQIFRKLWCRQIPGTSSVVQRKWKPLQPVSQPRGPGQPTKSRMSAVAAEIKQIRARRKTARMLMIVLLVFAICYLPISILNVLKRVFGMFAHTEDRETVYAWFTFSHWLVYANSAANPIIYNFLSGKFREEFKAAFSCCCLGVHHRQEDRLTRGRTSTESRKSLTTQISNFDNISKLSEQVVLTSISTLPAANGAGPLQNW
# Assay: Evaluation of OX2R agonist activity (intracellular calcium, CHO-K1 cells with forced expression of human OX2R)
# Format: cell-based
# Conditions: CHO-K1 cells expressing human OX2R; 100% = 5 µM of the reference compound; read-out: hOX2R EC50
# Method: Evaluation of OX2R agonist activity
# Chinese Hamster Ovary K1 (CHO-K1) cells (GenScript) with forced expression of human OX2R were seeded onto a 384 well microplate (Corning) at 7500 cells/well and cultured for 24 hours. 20 µL of the loading buffer (25 mM HEPES containing 1.25 mM of Probenecid and 2.5 µg/mL of Fluo 4-AM at final concentration, Hank's balanced salt solution, 0.06% Pluronic F-127, Quenching buffer) in the Calcium Kit II (DOJINDO LABORATORIES) was added, and the microplate was allowed to stand for 30 minutes. A reference compound (Example435 of WO 2019/027058, N-[(2S,3S)-2-[[3-(3,5-difluorophenyl)-2-fluoro-phenyl]methyl]-1-(2-hydroxy-2-methylpropanoyl)pyrrolidin-3-yl]ethanesulfonamide) or the test compound was added in 10 µL, and changes in intracellular calcium ion concentration were measured using FDSS7000EX (Hamamatsu Photonics K.K.) as a fluorescence intensity ratio obtained upon dual wavelength excitation at 480 nm and 540 nm. Note that the reference compound or test compound was dissolved in DMSO (final concentration of DMSO was 0.5%) and diluted with an assay buffer (20 mM HEPES, Hank's balanced salt solution, 0.1% BSA). The difference between the maximum and minimum fluorescence values between 5 and 7 seconds after the addition of the test compound or reference compound was used as the indicator. The value of wells to which the assay buffer containing no test compound was added was defined as 0%, and the value of wells to which 5 µM of the reference compound was added was defined as 100%. The 50% effective concentration (EC50 value) was determined from the values obtained when various concentrations of the test compound were added. […]
row,pEC50,SMILES
1,6.60,"CS(=O)(=O)N[C@H]1C2CC(C2)N(C(=O)[C@H]2C[C@@H]2F)[C@H]1Cc1cccc(-c2cc(F)cc(F)c2)c1F [Example 29, N-{(3S,4S)-2-{[(1R,2S)-2-Fluorocyclopropyl]carbonyl}-3-[(2,3',5'-trifluoro[biphenyl]-3-yl)methyl]-2-azabicyclo[3.1.1]heptan-4-yl}methanesulfonamide]"
2,7.12,"CC(C)NC(=O)N1C2CC(C2)[C@H](NS(C)(=O)=O)[C@@H]1Cc1cccc(-c2cc(F)cc(F)c2)c1F [Example 35, (3S,4S)-4-[(Methylsulfonyl)amino]-N-(propan-2-yl)-3-[(2,3',5'-trifluoro[biphenyl]-3-yl)methyl]-2-azabicyclo[3.1.1]heptane-2-carboxamide]"
3,6.61,"COCC(=O)N1C2CC(C2)[C@H](NS(C)(=O)=O)[C@@H]1Cc1cccc(-c2cc(F)cc(F)c2)c1F [Example 28, N-{(3S,4S)-2-(Methoxyacetyl)-3-[(2,3',5'-trifluoro[biphenyl]-3-yl)methyl]-2-azabicyclo[3.1.1]heptan-4-yl}methanesulfonamide]"
4,7.46,"CC[C@@H](O)C(=O)N1C2CC(C2)[C@H](NS(C)(=O)=O)[C@@H]1Cc1cccc(-c2cc(F)cc(F)c2)c1F [Example 26, N-{(3S,4S)-2-[(2R)-2-Hydroxybutanoyl]-3-[(2,3',5'-trifluoro[biphenyl]-3-yl)methyl]-2-azabicyclo[3.1.1]heptan-4-yl}methanesulfonamide]"
5,7.74,"CCNC(=O)N1C2CC(C2)[C@H](NS(C)(=O)=O)[C@@H]1Cc1cccc(-c2ccccc2)c1F [Example 37, (3S,4S)-N-Ethyl-3-[(2-fluoro[biphenyl]-3-yl)methyl]-4-[(methylsulfonyl)amino]-2-azabicyclo[3.1.1]heptane-2-carboxamide]"
6,7.55,"C[C@@H](O)C(=O)N1C2CC(C2)[C@H](NS(C)(=O)=O)[C@@H]1Cc1cccc(-c2cccc(OC(F)(F)F)c2)c1F [Example 42, N-{(3S,4S)-3-{[2-Fluoro-3'-(trifluoromethoxy)[biphenyl]-3-yl]methyl}-2-[(2R)-2-hydroxypropanoyl]-2-azabicyclo[3.1.1]heptan-4-yl}methanesulfonamide]"
7,7.24,"CS(=O)(=O)N[C@@H]1[C@H](Cc2cccc(-c3ccccc3)c2F)N(C(=O)[C@@H]2C[C@@H]2F)C2CC1(F)C2 [Example 66, N-[(3S,4R)-5-Fluoro-3-[(2-fluoro[biphenyl]-3-yl)methyl]-2-{[(1S,2S)-2-fluorocyclopropyl]carbonyl}-2-azabicyclo[3.1.1]heptan-4-yl]methanesulfonamide]"
8,7.64,"CC(C(=O)N1C2CC(C2)[C@H](NS(C)(=O)=O)[C@@H]1Cc1cccc(-c2ccccc2)c1F)n1cccn1 (stereo partly drawn) [Example 93, N-{(3S,4S)-3-[(2-Fluoro[biphenyl]-3-yl)methyl]-2-[2-(1H-pyrazol-1-yl)propanoyl]-2-azabicyclo[3.1.1]heptan-4-yl}methanesulfonamide]"

# Continued, compound first:
row,SMILES,pEC50
1,"CS(=O)(=O)NC1C2CC(C2)N(C(=O)C2CC2)C1Cc1ccnc(-c2cc(F)cc(F)c2)c1F (single isomer, unassigned) [Example 22, N-[2-(Cyclopropylcarbonyl)-3-{[2-(3,5-difluorophenyl)-3-fluoropyridin-4-yl]methyl}-2-azabicyclo[3.1.1]heptan-4-yl]methanesulfonamide]",7.10
2,"CC(C)(O)C(=O)N1C2CC(C2)[C@H](NS(C)(=O)=O)[C@@H]1Cc1cccc(-c2cccc(C(F)(F)F)c2)c1F [Example 18, N-[(3S,4S)-3-{[2-Fluoro-3'-(trifluoromethyl)[biphenyl]-3-yl]methyl}-2-(2-hydroxy-2-methylpropanoyl)-2-azabicyclo[3.1.1]heptan-4-yl]methanesulfonamide]",6.11
3,"CN(C)S(=O)(=O)N[C@H]1C2CC(C2)N(C(=O)C(C)(C)O)[C@H]1Cc1cccc(-c2cc(F)cc(F)c2)c1F (single isomer, unassigned) [Example 2]",7.05
4,"C[C@H](O)C(=O)N1C2CC(C2)[C@H](NS(C)(=O)=O)[C@@H]1Cc1cccc(-c2cc(F)cc(F)c2)c1F [Example 15, N-{(3S,4S)-2-[(2S)-2-Hydroxypropanoyl]-3-[(2,3',5'-trifluoro[biphenyl]-3-yl)methyl]-2-azabicyclo[3.1.1]heptan-4-yl}methanesulfonamide]",6.52
5,"CC(C)(O)C(=O)N1C2CC(C2)C(NS(C)(=O)=O)C1Cc1cccc(-c2cc(F)cc(F)c2)c1 (single isomer, unassigned) [Example 13, N-{3-[(3',5'-Difluoro[biphenyl]-3-yl)methyl]-2-(2-hydroxy-2-methylpropanoyl)-2-azabicyclo[3.1.1]heptan-4-yl}methanesulfonamide]",5.94
6,"[2H]C([2H])([2H])[C@@]([2H])(O)C(=O)N1C2CC(F)(C2)[C@H](NS(=O)(=O)CC)[C@@H]1Cc1cccc(-c2ccccc2)c1F [Example 90, N-{(3S,4R)-5-Fluoro-3-[(2-fluoro[biphenyl]-3-yl)methyl]-2-[(2R)-2-hydroxy(^2H4)propanoyl]-2-azabicyclo[3.1.1]heptan-4-yl}ethanesulfonamide]",7.68
7,"CC(C)(O)C(=O)N1C2CC(C2)[C@H](NS(C)(=O)=O)[C@@H]1Cc1cccc(-c2cccc(Cl)n2)c1F [Example 21, N-[(3S,4S)-3-[3-(6-Chloropyridin-2-yl)-2-fluorobenzyl]-2-(2-hydroxy-2-methylpropanoyl)-2-azabicyclo[3.1.1]heptan-4-yl]methanesulfonamide]",6.66
8,"C[C@@H](O)C(=O)N1C2CC(C2)[C@H](NS(C)(=O)=O)[C@@H]1Cc1cccc(-c2cccc(C3CC3)c2)c1F [Example 41, N-{(3S,4S)-3-[(3'-Cyclopropyl-2-fluoro[biphenyl]-3-yl)methyl]-2-[(2R)-2-hydroxypropanoyl]-2-azabicyclo[3.1.1]heptan-4-yl}methanesulfonamide]",7.51
9,"C=CS(=O)(=O)NC1C(Cc2cc(F)cc(-c3ccccc3)c2F)N(C(=O)[C@@H](C)O)C2CC1(F)C2 (single isomer, unassigned) [Example 96]",8.00
10,"O=C([C@H]1C[C@H]1F)N1C2CC(C2)[C@H](NS(=O)(=O)C2CC2)[C@@H]1Cc1cccc(-c2ccccc2)c1F [Example 45, N-[(3S,4S)-3-[(2-Fluoro[biphenyl]-3-yl)methyl]-2-{[(1R,2R)-2-fluorocyclopropyl]carbonyl}-2-azabicyclo[3.1.1]heptan-4-yl]cyclopropanesulfonamide]",6.94
11,"C[C@@H](O)C(=O)N1C2CC(C2)[C@H](NS(C)(=O)=O)[C@@H]1Cc1cccc(-c2cccc(C(F)F)n2)c1F [Example 47, N-{(3S,4S)-3-{3-[6-(Difluoromethyl)pyridin-2-yl]-2-fluorobenzyl}-2-[(2R)-2-hydroxypropanoyl]-2-azabicyclo[3.1.1]heptan-4-yl}methanesulfonamide]",6.93
12,"CS(=O)(=O)N[C@@H]1[C@H](Cc2cccc(-c3ccccc3)c2F)N(C(=O)c2cocn2)C2CC1(F)C2 [Example 55, N-[(3S,4R)-5-Fluoro-3-[(2-fluoro[biphenyl]-3-yl)methyl]-2-(1,3-oxazol-4-ylcarbonyl)-2-azabicyclo[3.1.1]heptan-4-yl]methanesulfonamide]",6.23
13,"CS(=O)(=O)N[C@H]1C2CC(C2)N(C(=O)[C@H]2CCCO2)[C@H]1Cc1cccc(-c2cc(F)cc(F)c2)c1F [Example 17, N-{(3S,4S)-2-[(2R)-Tetrahydrofuran-2-ylcarbonyl]-3-[(2,3',5'-trifluoro[biphenyl]-3-yl)methyl]-2-azabicyclo[3.1.1]heptan-4-yl}methanesulfonamide]",6.97
14,"CCC(=O)N1C2CC(C2)[C@H](NS(C)(=O)=O)[C@@H]1Cc1cccc(-c2ccccc2)c1F [Example 56, N-{(3S,4S)-3-[(2-Fluoro[biphenyl]-3-yl)methyl]-2-propanoyl-2-azabicyclo[3.1.1]heptan-4-yl}methanesulfonamide]",6.61
15,"[2H]c1c([2H])c([2H])c(-c2cccc(C[C@H]3[C@@H](NS(C)(=O)=O)C4CC(C4)N3C(=O)[C@@H](C)O)c2F)c([2H])c1[2H] [Example 54, N-{(3S,4S)-3-{[2-Fluoro(2',3',4',5',6'-^2H5)[biphenyl]-3-yl]methyl}-2-[(2R)-2-hydroxypropanoyl]-2-azabicyclo[3.1.1]heptan-4-yl}methanesulfonamide]",7.66
16,"CS(=O)(=O)N[C@@H]1[C@H](Cc2cccc(-c3ccccc3)c2F)N(C(=O)c2ccon2)C2CC1(F)C2 (single isomer, unassigned) [Example 84]",6.64
